Several values for one entry are separate records, joined by “and”; a condition that tells them apart may be missing. Identical values can stand only once.
Columns and labels:
rRyR1 F4564Y = biological target: T1, rRyR1 F4564Y (Oryctolagus cuniculus, UniProt P11716, F4564Y); assay: time-lapse [Ca2+]ER fluorescence assay, HEK293 cells; assay type: cell-based, rabbit; details: n = 3
T1 construct: expressed in transfected cells

chiRyR [1] = biological target: T2, chiRyR (Oryctolagus cuniculus, UniProt P11716, C4657I/F4564Y/L4792S/R4563K); assay: biochemical; assay type: biochemical, rabbit
chiRyR [2] = biological target: T2, chiRyR; assay: cell-based; parameters: species or system rabbit
Spodoptera frugiperda = tested on: Spodoptera frugiperda; parameters: method as in PMID 31157506; details: in vivo; cited from earlier work
rRyR1 = rRyR1 (Oryctolagus cuniculus, UniProt P11716); assay: time-lapse [Ca2+]ER fluorescence assay, HEK293 cells; assay type: cell-based, rabbit
chiRyR-I4657M/G4819E [3] = biological target: T3, chiRyR-I4657M/G4819E (Oryctolagus cuniculus, UniProt P11716, C4657M/F4564Y/G4819E/L4792S/R4563K); assay: biochemical; assay type: biochemical, rabbit
Sf RyR = Sf RyR (Spodoptera frugiperda, UniProt A0A4P8L6R5); assay: time-lapse [Ca2+]ER fluorescence assay, HEK293 cells; assay type: cell-based
chiRyR-I4657M/G4819E [4] = biological target: T3, chiRyR-I4657M/G4819E; assay: cell-based; parameters: species or system rabbit
solubility comparison = assay type: physicochemical
[5] = tested on: Drosophila melanogaster RyR M4758I; assay: Bioassay of gene-edited Drosophila melanogaster (feeding, mortality after 24 h); assay type: in vivo; details: for death rate: 24 h
rRyR1 R4563K = biological target: T4, rRyR1 R4563K (Oryctolagus cuniculus, UniProt P11716, R4563K); assay: time-lapse [Ca2+]ER fluorescence assay, HEK293 cells; assay type: cell-based, rabbit; details: n = 3
T4 construct: expressed in transfected cells

Sf RyR_I4734M/G4891E = Sf RyR_I4734M/G4891E (Spodoptera frugiperda, UniProt A0A4P8L6R5, G4891E/I4734M); assay: cell-based
[6] = tested on: Drosophila melanogaster RyR G4915E; assay: Bioassay of gene-edited Drosophila melanogaster (feeding, mortality after 24 h); assay type: in vivo; details: for death rate: 24 h
rRyR1 C4657I = biological target: T5, rRyR1 C4657I (Oryctolagus cuniculus, UniProt P11716, C4657I); assay: time-lapse [Ca2+]ER fluorescence assay, HEK293 cells; assay type: cell-based, rabbit; details: n = 3
T5 construct: expressed in transfected cells

rRyR1 L4792S = biological target: T6, rRyR1 L4792S (Oryctolagus cuniculus, UniProt P11716, L4792S); assay: as above; assay type: cell-based, rabbit; details: n = 3
T6 construct: expressed in transfected cells

[7] = Ca2+-dependent [3H]ryanodine binding, mean ± SD, n=4
[8] = Ca2+-dependent [3H]ryanodine binding, mean ± SD, n=4, read-out: EC50 values for Ca2+

CNC(=O)c1cc(Cl)cc(C)c1NC(=O)c1cc(Br)nn1-c1ncccc1Cl [CHL, chlorantraniliprole]
EC50 (rRyR1 F4564Y): 0.556 µM
EC50 (chiRyR [1]): 0.0017 ± 0.0003 µM
[3H]ryanodine binding (B/Bmax) (chiRyR [1]; CHL 0.010 uM): 0.191 and 0.230 and 0.144 and 0.262
[3H]ryanodine binding (B/Bmax) (chiRyR [1]; CHL 0.100 uM): 0.168 and 0.180 and 0.215
[3H]ryanodine binding (B/Bmax) (chiRyR [1]; CHL 1.000 uM): 0.199 and 0.219 and 0.215 and 0.312
[3H]ryanodine binding (B/Bmax) (chiRyR [1]; CHL 10.000 uM): 0.246 and 0.234 and 0.250 and 0.215
[3H]ryanodine binding (B/Bmax) (chiRyR [1]; CHL 100.000 uM): 0.207 and 0.242 and 0.223 and 0.191
EC50 (chiRyR [2]): 0.0016 µM
F/F0 (chiRyR [2]; CHL 1e-5 uM): 0.9477 and 0.9176 and 0.9126
F/F0 (chiRyR [2]; CHL 2.5e-5 uM): 0.9199 and 0.9229 and 0.931
F/F0 (chiRyR [2]; CHL 5e-5 uM): 0.8883 and 0.929 and 0.9092
F/F0 (chiRyR [2]; CHL 0.0001 uM): 0.9049 and 0.9411 and 0.8175
F/F0 (chiRyR [2]; CHL 0.00025 uM): 0.8945 and 0.8973 and 0.8398
F/F0 (chiRyR [2]; CHL 0.0005 uM): 0.6917 and 0.6365 and 0.6304
F/F0 (chiRyR [2]; CHL 0.0025 uM): 0.5122 and 0.4849 and 0.4622
F/F0 (chiRyR [2]; CHL 0.005 uM): 0.6454 and 0.5393 and 0.4867
F/F0 (chiRyR [2]; CHL 0.01 uM): 0.4912 and 0.5046 and 0.4772
F/F0 (chiRyR [2]; CHL 0.025 uM): 0.5158 and 0.4751 and 0.4992
F/F0 (chiRyR [2]; CHL 0.05 uM): 0.5374 and 0.5173 and 0.549
F/F0 (chiRyR [2]; CHL 0.1 uM): 0.4915 and 0.5257 and 0.4507
F/F0 (chiRyR [2]; CHL 1 uM): 0.5356 and 0.5199 and 0.5646
F/F0 (chiRyR [2]; CHL 3 uM): 0.5195 and 0.4435 and 0.4631
F/F0 (chiRyR [2]; CHL 10 uM): 0.5287 and 0.4905 and 0.48
F/F0 (chiRyR [2]; CHL 30 uM): 0.5354 and 0.4682 and 0.4761
F/F0 (chiRyR [2]; CHL 50 uM): 0.5799 and 0.4954 and 0.5274
fold decreased sensitivity (Spodoptera frugiperda): 225 fold
EC50 (rRyR1): 4.9 µM
EC50 (chiRyR-I4657M/G4819E [3]): 14.7 ± 1.6 µM
[3H]ryanodine binding (B/Bmax) (chiRyR-I4657M/G4819E [3]; CHL 10.000 uM): 0.114 and 0.077 and 0.068 and 0.062
[3H]ryanodine binding (B/Bmax) (chiRyR-I4657M/G4819E [3]; CHL 100.000 uM): 0.193 and 0.240 and 0.178 and 0.209
F/F0 (Sf RyR; CHL 1e-5 uM): 0.9606 and 0.9752 and 0.9813
F/F0 (Sf RyR; CHL 0.001 uM): 1.004 and 1.002 and 1.001
F/F0 (Sf RyR; CHL 0.005 uM): 0.7229 and 0.7431 and 0.7294
F/F0 (Sf RyR; CHL 0.01 uM): 0.3097 and 0.3094 and 0.2868
F/F0 (Sf RyR; CHL 0.1 uM): 0.2582 and 0.2663 and 0.2776
F/F0 (Sf RyR; CHL 0.5 uM): 0.268 and 0.2944 and 0.2596
F/F0 (Sf RyR; CHL 1 uM): 0.2734 and 0.2934 and 0.2867
F/F0 (Sf RyR; CHL 10 uM): 0.2774 and 0.2809 and 0.2932
F/F0 (Sf RyR; CHL 50 uM): 0.2939 and 0.2698 and 0.3129
EC50 (Sf RyR; n = 3, read-out: EC50): 0.0055 µM
F/F0 (chiRyR-I4657M/G4819E [4]; CHL 1e-5 uM): 0.8891 and 0.8803 and 0.8832
F/F0 (chiRyR-I4657M/G4819E [4]; CHL 0.0001 uM): 0.8817 and 0.9289 and 0.9243
F/F0 (chiRyR-I4657M/G4819E [4]; CHL 0.001 uM): 0.9674 and 0.9402 and 0.9553
F/F0 (chiRyR-I4657M/G4819E [4]; CHL 0.005 uM): 0.9942 and 0.938 and 0.9411
F/F0 (chiRyR-I4657M/G4819E [4]; CHL 0.01 uM): 0.9479 and 0.955 and 0.9174
F/F0 (chiRyR-I4657M/G4819E [4]; CHL 0.1 uM): 0.9465 and 0.9355 and 0.9097
F/F0 (chiRyR-I4657M/G4819E [4]; CHL 0.3 uM): 0.9306 and 0.9655 and 0.9439
F/F0 (chiRyR-I4657M/G4819E [4]; CHL 0.5 uM): 0.9145 and 0.8971 and 0.9399
F/F0 (chiRyR-I4657M/G4819E [4]; CHL 1 uM): 0.9091 and 0.8544 and 0.9005
F/F0 (chiRyR-I4657M/G4819E [4]; CHL 3 uM): 0.8328 and 0.8713 and 0.8682
F/F0 (chiRyR-I4657M/G4819E [4]; CHL 10 uM): 0.808 and 0.819 and 0.7565
F/F0 (chiRyR-I4657M/G4819E [4]; CHL 30 uM): 0.7257 and 0.6335 and 0.5826
F/F0 (chiRyR-I4657M/G4819E [4]; CHL 50 uM): 0.6512 and 0.5528 and 0.5088
F/F0 (chiRyR-I4657M/G4819E [4]; CHL 100 uM): 0.5781 and 0.4912
F/F0 (chiRyR-I4657M/G4819E [4]; CHL 200 uM): 0.6274 and 0.5179
F/F0 (chiRyR-I4657M/G4819E [4]; CHL 500 uM): 0.5379 and 0.5182
EC50 (chiRyR-I4657M/G4819E [4]; EC50, diamide insecticides, n = 3): 10.3 µM and 14.6 µM
relative solubility (solubility comparison): more soluble than TET
LD50 ([5]; 24 h feeding, n = 30): 127.9 nM
death rate ([5]; CHL 0.010 uM): 0%
death rate ([5]; CHL 0.033 uM): 0% and 10%
death rate ([5]; CHL 0.100 uM): 60% and 40%
death rate ([5]; CHL 0.333 uM): 80% and 70%
death rate ([5]; CHL 1.000 uM): 100% and 90%
death rate ([5]; CHL 3.333 uM): 100%
death rate ([5]; CHL 10.000 uM): 100%
EC50 (rRyR1 R4563K): 0.0626 µM
EC50 (Sf RyR_I4734M/G4891E): 9.1 µM
F/F0 (Sf RyR_I4734M/G4891E; CHL 0.1 uM): 0.9609 and 0.9591 and 1.0034
F/F0 (Sf RyR_I4734M/G4891E; CHL 1 uM): 0.987 and 0.977 and 0.9858
F/F0 (Sf RyR_I4734M/G4891E; CHL 10 uM): 0.5363 and 0.6213 and 0.7359
F/F0 (Sf RyR_I4734M/G4891E; CHL 50 uM): 0.3469 and 0.3845 and 0.4143
F/F0 (Sf RyR_I4734M/G4891E; CHL 100 uM): 0.3178 and 0.3119 and 0.3455
F/F0 (Sf RyR_I4734M/G4891E; CHL 150 uM): 0.3313 and 0.3179 and 0.3624
F/F0 (Sf RyR_I4734M/G4891E; CHL 200 uM): 0.3347 and 0.3244 and 0.3692
LD50 ([6]; 24 h feeding, n = 30, heterozygous G4915E/G): 1.6 mM
death rate ([6]; CHL 1.000 uM): 0%
death rate ([6]; CHL 3.333 uM): 0%
death rate ([6]; CHL 10.000 uM): 0% and 10%
death rate ([6]; CHL 33.333 uM): 10%
death rate ([6]; CHL 100.000 uM): 10% and 20%
EC50 (rRyR1 C4657I): 0.167 µM
EC50 (rRyR1 L4792S): 0.0448 µM

[Ca+2] [Ca2+]
IC50 (chiRyR [1]; [7]): 670 ± 370 µM
EC50 (chiRyR [1]; [8]): 5 ± 1.1 µM
IC50 (chiRyR-I4657M/G4819E [3]; [7]): 590 ± 190 µM
EC50 (chiRyR-I4657M/G4819E [3]; [8]): 4.4 ± 2.4 µM

— publication PMC11491487 (Nature Communications, 2024)
